# Legend:
# [1] = tested on: Salmonella; assay: Salmonella cfu/g of caeca at day 42 (Example 10); assay type: in vivo; conditions: in feed
# Procedure: (§1) A study was performed to evaluate growth promotion and reduction of Campylobacter carriage using FeTyr in Ross 308 male broilers with 7 treatment groups. Each treatment group comprised eight replicates of 10 birds per pen (80 birds/treatment group), with 2 control groups and […]. All the test groups and both of the control groups were exposed at day 20 of the trial to dirty litter, which tested positive for Campylobacter. This method was used to provide a more natural method to Campylobacter challenge the birds. Thus there were two positive controls where each treatment group was challenged with Campylobacter, and five treatment groups that were all challenged with Campylobacter. The total number of birds used in the 7 treatment groups was 560.
# (§2) At day 20, litter, which was naturally Campylobacter-contaminated, was tested to confirm the presence of Campylobacter, and then added (approximately 2 kg/pen) to the litter in all pens. At day 42, caecal samples were taken and tested for Campylobacter, E. coli and Salmonella enumeration.
# [2] = tested on: Campylobacter; assay: Campylobacter carriage in chickens, cfu/g of droppings and caeca at day 42 (Example 1); assay type: in vivo
# Procedure: (§3) A study was performed to evaluate growth promotion and reduction of Campylobacter carriage using FeQ and FeTyr in Ross 308 male broilers with 7 treatment groups. Each treatment group comprised four replicates of 10 birds per pen (40 birds/treatment group and 4 pens of 10 birds/treatment group), with 2 control groups and 5 test groups. All the test groups and one of the control groups were exposed at day 20 of the trial to dirty litter, which tested positive for Campylobacter. This method was used to provide a more natural method to Campylobacter challenge the birds. Thus there was a positive control where one treatment group was challenged with Campylobacter and one negative control group where the birds were not challenged, and five treatment groups that were all challenged with Campylobacter. The total number of birds used in the 7 treatment groups was 280. Treatment group 1 was a negative control where birds just received the commercial feed, and were not challenged with dirty litter containing Campylobacter. Treatment group 2 was the positive control where the birds received the commercial feed, and were challenged with dirty litter containing Campylobacter at day 20. Treatment group 3 received 0.22 g/L of FeQ in their drinking water and 0.22 g/Kg FeQ in their feed during the entire trial, and was challenged with dirty litter containing Campylobacter at day 20. Treatment group 5 received 0.22 g/L of FeQ in their drinking water during the entire trial, and was challenged with dirty litter containing Campylobacter at day 20. Treatment group 6 received 0.22 g/kg FeQ in their feed during the entire trial, and was challenged with dirty litter containing Campylobacter at day 20. Treatment group 7 received 0.022 g/L FeQ in their drinking water during the entire trial, and was challenged with dirty litter containing Campylobacter at day 20. Treatment group 8 received 0.02 g/L FeTyr in their drinking water during the entire trial, and was challenged with dirty litter containing Campylobacter at day 20. The FeTyr was pre-dissolved in DMSO, and diluted to provide a solution of 0.02 g/L of FeTyr in water. (An additional treatment group 4 was terminated due to solubility issues.)
# (§4) Prior to challenging the chickens with dirty litter containing Campylobacter at day 20, each pen was tested for Campylobacter using cloacal swabs. All pens tested negative for Campylobacter prior to the challenge. At day 20, litter, which was naturally Campylobacter-contaminated, was tested to confirm the presence of Campylobacter, and then added (approximately 2 kg/pen) to the litter in all pens except in pens for treatment group 1 (the negative control). At day 28, the pen litter was sampled to confirm the presence or absence of Campylobacter. At day 41 and 42, caecal samples were taken from 3 birds per pen (12 birds per treatment group) and tested for Campylobacter enumeration. At day 42, digesta, fecal samples, and caecal content was taken from all birds, and pooled per pen. Two birds per pen were also taken from treatment groups 1-3, euthanized, and blood samples taken. Samples were analyzed for blood chemistry, including analysis for alkaline phosphatase, aspartate amino transferase, alanine amino transferase, gamma-glutamyl transferase, lactate dehydrogenase, total protein, albumin, globulin, amylase and glucose.
# [3] = tested on: Campylobacter; assay: Campylobacter cfu/g of caeca at day 42 (Example 10); assay type: in vivo; conditions: in feed
# Procedure: as §1, §2
# [4] = tested on: E. coli; assay: E. coli cfu/g of caeca at day 42 (Example 10); assay type: in vivo
# Procedure: as §1, §2
# [5] = Growth performance of broilers given FeQ or FeTyr in water/feed, dirty litter Campylobacter challenge at day 20 (Example 1); assay type: in vivo, Ross 308 male broilers
# Procedure: as §3
# The birds were fed with a commercial three-phase feeding program using starter, grower and finisher feeds with formulations shown in Table 2. All diets had coccidiostat (MAXIBAN® at 0.0625% in starter and […] and MONTEBAN® at 0.06% in finisher phase). Xylanase (RONOZYME® WX at 200 g per ton) and phytase (RONOZYME® P at 150 grams per ton) were added to all diets.
# The feeding program is show in Table 3. The birds were reared in floor pens to day 42, and fed starter, grower and finisher feed at day 0 to 11, 11 to 24, and 24 to 42 days, respectively. All birds were weighed individually and feed weigh backs recorded per pen at day 0, 11, 21, 24 and 42 days.
# as §4, with “Samples were analyzed for blood chemistry, including analysis for alkaline phosphatase, aspartate amino transferase, alanine amino transferase, gamma-glutamyl transferase, lactate dehydrogenase, total protein, albumin, globulin, amylase and glucose.” left out
# [6] = Dose ranging study of FeTyr (TYPLEX) in feed, zootechnical performance of broilers, dirty litter challenge at day 20 (Example 10); assay type: in vivo, Ross 308 male broilers; conditions: all treatment groups, in feed
# Procedure: as §1
# Treatment group 1 was a positive control where birds just received the commercial feed, and were challenged with dirty litter containing Campylobacter at day 20. Treatment group 2 received 0.01 g/kg of TYPLEX (FeTyr) in their feed, and were challenged with dirty litter containing Campylobacter at day 20. Treatment group 3 received 0.02 g/kg of TYPLEX (FeTyr) in their feed, and was challenged with dirty litter containing Campylobacter at day 20. Treatment group 4 received 0.05 g/kg of TYPLEX (FeTyr) in their feed, and was challenged with dirty litter containing Campylobacter at day 20. Treatment group 5 received 0.1 g/kg of TYPLEX (FeTyr) in their feed, and was challenged with dirty litter containing Campylobacter at day 20. Treatment group 6 received 0.2 g/kg of TYPLEX (FeTyr) in their feed, and was challenged with dirty litter containing Campylobacter at day 20. […] The birds were fed with a commercial three-phase feeding program using starter, grower and finisher feeds as described in Example 1. The birds were reared in floor pens to day 42, and fed starter, grower and finisher feed at day 0 to 11, 11 to 24, and 24 to 42 days, respectively. All birds were weighed individually and feed weigh backs recorded per pen at day 0, 11, 21, 24 and 42 days.
# as §2
# In order to minimize risk of cross-contamination, standard industry biosecurity measures were used including: disinfecting boots, changing overshoes and gloves between pens/treatments, entering Campylobacter negative pens before entering Campylobacter positive pens, and leaving adjacent pens empty. Daily health, culls, and mortality were recorded. All bird weights were recorded at 0, 11, 21, 24, 33 and 42 days. Weight gains, feed intake and feed conversion ratio (FCR) were derived for each feeding period.
compound,measurement,setting,value
"N[C@@H](Cc1ccc(O)cc1)C(=O)O.[Fe+3] [FeTyr, ferric tyrosine]",Salmonella cfu/g of caeca at day 42 (FIG. 15),[1],positive effect on reducing Campylobacter infection
same,Campylobacter cfu/g of caeca samples at day 42 compared with positive control (FIG. 4),[2]; treatment groups 3 and 5-8,positive effect on reducing Campylobacter infection
same,Campylobacter cfu/g of bird droppings at day 42 compared with positive control (FIG. 3),[2]; treatment groups 3 and 6-8,positive effect on reducing Campylobacter infection
same,Campylobacter cfu/g of caeca at day 42 (FIG. 14),[3],positive effect on reducing Campylobacter infection
same,E. coli cfu/g of caeca at day 42 (FIG. 16),[4]; in feed,positive effect on reducing Campylobacter infection
same,levels of E. coli in poultry upon treatment,[4]; poultry data,lower levels of E. coli
same,"effect on growth performance in the absence of Campylobacter challenge, first 20 days",[5]; compared with control groups 1 and 2,positive effect
same,effect on MFCR at day 42 compared with positive control (FIG. 2),"[5]; treatment groups 3, 5, 6, 7 and 8, challenged with dirty litter",positive effect on MFCR
same,effect on growth: average body weight at day 42 compared with positive control (FIG. 1),"[5]; treatment groups 3, 5, 6, 7 and 8, challenged with dirty litter containing Campylobacter",positive effect on growth
same,MFCR at day 42 compared to control group (FIG. 13),[6],improved MFCR values
same,average body weight at day 42 compared with control group (FIG. 12),[6],higher average body weight

# — patent US10653658B2, “Biofilm inhibiting compositions enhancing weight gain in livestock” (Akeso Biomedical, Inc., priority 2015, dated 2020)
